Reference: patent US20090191193A1, “Aryl Vinyl Sulfides, Sulfones, Sulfoxides and Sulfonamides, Derivatives Thereof and Therapeutic Uses Thereof” (TEMPLE UNIVERSITY-OF THE COMMONWEALTH SYSTEM OF HIGHER …, priority 2006, published 2009)

Key:
[1] = tested on: K562 (chronic myelogenous leukaemia); test: Effect on tumor cell lines, viable cell count by trypan blue exclusion (Latham et al.): K562; format: cell-based; details: Homo sapiens, K562, 96 h, K562 chronic myelogenous leukaemia cells, viable cell count 96 hours after treatment
Procedure: (§1) The effect of the compounds of the invention on tumor cells was determined by the assay described by Latham et al., Oncogene 12:827-837 (1996). Tumor cells DU145 (prostate cancer), K562 (chronic myelogenous leukaemia), BT20 (breast carcinoma), H157 (non small cell lung carcinoma), or DLD1 (colon carcinoma) were plated in 6-well dishes at a cell density of 1.0×10^5 cells per 35-mm^2 well. […] The total number of viable cells was determined 96 hours later by trypsinizing the wells and counting the number of viable cells, as determined by trypan blue exclusion, using a hemacytometer. Normal HFL cells were treated with the same compounds under the same conditions of concentration and time.

DU145 (prostate cancer) = test: Effect on tumor cell lines, viable cell count by trypan blue exclusion (Latham et al.): DU145; format: cell-based; details: Homo sapiens, DU-145, 96 h, DU145 prostate cancer cells, viable cell count 96 hours after treatment
Procedure: as §1

| SMILES | IC50 [1] [µM] | melting point [°C] | IC50 (DU145 (prostate cancer)) [µM] |
| --- | --- | --- | --- |
| COc1ccc(NS(=O)(=O)/C(C#N)=C/c2cc(OC)c(OC)cc2OC)cc1 [Example 284] | 25 to 50 | 171 to 173 | > 100 |
| N#C/C(=C\c1cc(F)cc(F)c1)S(=O)(=O)Cc1ccccc1 [Example 143] | 25 to 50 | 148 to 150 | > 100 |
| COc1ccccc1/C=C(\C#N)S(=O)(=O)Nc1ccccc1Oc1ccccc1 [Example 199] | 50 to 100 | 116 to 118 | > 100 |
| COc1cc(OC)c(/C=C(\C#N)S(=O)(=O)Cc2ccc(Br)cc2)c(OC)c1 [Example 20] | 10 | 158 to 160 | 75 |
| COc1cc(OC)c(/C=C(\C#N)S(=O)(=O)Nc2ccc(F)cc2)c(OC)c1 [Example 232] | 25 to 50 | 169 to 171 | 50 to 100 |
| N#C/C(=C\c1c[nH]c2ccc(Cl)cc12)S(=O)(=O)Cc1ccc(Cl)cc1 [Example 73] | 10 to 25 | 172 to 182 | 25 to 50 |
| Cc1ccc(NS(=O)(=O)/C(C#N)=C/c2ccc(Cl)c(Cl)c2)c(C)c1 [Example 274] | 50 to 100 | 141 to 143 | 50 to 100 |
| COc1cc(/C=C(\C#N)S(=O)(=O)Cc2ccc(Cl)cc2Cl)cc(OC)c1OC [Example 105] | 10 to 25 | 147 to 152 | 25 to 50 |
| COc1cc(OC)c(/C=C(\C#N)S(=O)(=O)Nc2ccc(Br)cc2)c(OC)c1 [Example 215] | 10 to 25 | 197 to 199 | 25 to 50 |
| N#C/C(=C\c1ccc(C#N)cc1F)S(=O)(=O)Cc1ccc(Br)cc1 [Example 16] | 10 | 202 to 204 | 75 |
| COc1ccccc1/C=C(\C#N)S(=O)(=O)Cc1ccccc1 [Example 126] | > 100 | 169 to 172 | > 100 |
| COc1ccc(NS(=O)(=O)/C(C#N)=C/c2ccc(F)cc2)cc1 [Example 200] | 50 to 100 | 107 to 109 | > 100 |
| Cc1ccc(C)c(/C=C(\C#N)S(=O)(=O)Nc2ccc(F)cc2)c1 [Example 238] | 50 to 100 | 161 to 164 | > 100 |
| N#C/C(=C\c1ccc(Cl)cc1)S(=O)(=O)Cc1ccc(Cl)cc1 [Example 61] | 25 to 50 | 145 to 168 | 50 to 100 |
| N#C/C(=C\c1ccccc1Oc1ccccc1)S(=O)(=O)Nc1ccccc1Oc1ccccc1 [Example 210] | 1 to 10 | 138 to 140 | 25 to 50 |
| COc1ccc(/C=C(\C#N)S(=O)(=O)Nc2ccc(Br)cc2)c(OC)c1OC [Example 218] | 50 to 100 | 146 to 148 | > 100 |
| COc1ccc(/C=C(\C#N)S(=O)(=O)Cc2ccc(Cl)cc2Cl)cc1OC [Example 110] | 25 to 50 | 149 to 153 | 50 to 100 |
| Cc1ccsc1/C=C(\C#N)S(=O)(=O)Nc1ccc(Br)cc1 [Example 224] | 50 to 100 | 176 to 179 | 50 to 100 |
| N#C/C(=C\c1ccc(O)c([N+](=O)[O-])c1)S(=O)(=O)Nc1ccc(Br)cc1 [Example 223] | > 100 | > 250 | > 100 |
| COc1ccc(CS(=O)(=O)/C(C#N)=C/c2ccc(Cl)c(Cl)c2Cl)cc1 [Example 146] | 25 to 50 | 136 to 138 | 50 to 100 |
| N#C/C(=C\c1ccccc1Cl)S(=O)(=O)Nc1ccc(Br)cc1 [Example 227] | 25 to 50 | 192 to 194 | 50 to 100 |
| N#C/C(=C\c1cccc(O)c1)S(=O)(=O)Cc1ccccc1 [Example 124] | 50 to 100 | 132 to 135 | > 100 |

| SMILES | IC50 [1] [µM] | melting point [°C] | IC50 (DU145 (prostate cancer)) [µM] |
| --- | --- | --- | --- |
| COc1ccc(/C=C(\C#N)S(=O)(=O)Nc2ccc(C)cc2C)c(F)c1 [Example 261] | 50 to 100 | 142 to 144 | > 100 |
| COc1ccc(/C=C(\C#N)S(=O)(=O)Nc2ccc(F)cc2)c(F)c1 [Example 241] | 50 to 100 | 142 to 144 | > 100 |
| CCOc1ccc(/C=C(\C#N)S(=O)(=O)Nc2ccc(F)cc2)cc1OC [Example 251] | > 100 | 150 to 152 | > 100 |
| Cc1cc(C)cc(/C=C(\C#N)S(=O)(=O)Cc2ccc(Br)cc2)c1 [Example 101] | 50 to 100 | 169 to 172 | > 100 |
| COc1ccc(/C=C(\C#N)S(=O)(=O)Cc2ccc(Cl)cc2Cl)c(F)c1 [Example 65] | 50 to 100 | 140 to 155 | 50 to 100 |
| COc1cc(/C=C(\C#N)S(=O)(=O)Nc2ccc(F)cc2)cc(OC)c1OC [Example 249] | > 100 | 179 to 182 | > 100 |
| N#C/C(=C\c1ccc([N+](=O)[O-])cc1F)S(=O)(=O)Cc1ccc(Cl)cc1 [Example 48] | 1 to 10 | 243 to 253 | 1 to 10 |
| Cc1ccc(NS(=O)(=O)/C(C#N)=C/c2ccc(C)s2)c(C)c1 [Example 265] | 25 to 50 | 158 to 160 | 50 to 100 |
| N#C/C(=C\c1ccccc1O)S(=O)(=O)Cc1ccc(Cl)cc1 [Example 121] | > 100 | 171 to 176 | > 100 |
| COc1ccccc1/C=C(\C#N)S(=O)(=O)Nc1ccc(Br)cc1 [Example 225] | 50 to 100 | 187 to 189 | 50 to 100 |
| N#C/C(=C\c1c[nH]c2ccccc12)S(=O)(=O)Nc1ccc(Br)cc1 [Example 214] | 25 to 50 | 208 to 210 | 50 to 100 |
| COc1cc(/C=C(\C#N)S(=O)(=O)Cc2ccccc2)cc(OC)c1OC [Example 131] | 50 to 100 | 142 to 146 | > 100 |
| Cc1ccc(C)c(/C=C(\C#N)S(=O)(=O)Cc2ccccc2)c1 [Example 136] | 1 to 10 | 126 to 129 | 25 to 50 |
| COc1ccc(/C=C(\C#N)S(=O)(=O)Cc2ccc(Cl)cc2Cl)c(OC)c1OC [Example 93] | 25 to 50 | 150 to 165 | 25 to 50 |
| COc1cc(OC)c(/C=C(\C#N)S(=O)(=O)Cc2ccc(Cl)cc2)c(OC)c1 [Example 53] | 50 to 100 | 177 to 180 | 50 to 100 |
| N#C/C(=C\c1ccc(F)cc1Cl)S(=O)(=O)Cc1ccc(Cl)cc1 [Example 41] | 50 to 100 | 124 to 126 | 50 to 100 |
| N#C/C(=C\c1ccccc1OCc1ccccc1)S(=O)(=O)Cc1ccc(Cl)cc1 [Example 70] | > 100 | 129 to 137 | > 100 |
| COc1ccc(NS(=O)(=O)/C(C#N)=C/c2c[nH]c3ccccc23)cc1 [Example 278] | 50 to 100 | 201 to 205 | 50 to 100 |
| N#C/C(=C\c1ccc(F)cc1Cl)S(=O)(=O)Cc1ccc(Cl)cc1Cl [Example 95] | 50 to 100 | 142 to 148 | 50 to 100 |
| COc1ccc(/C=C(\C#N)S(=O)(=O)Cc2ccc(Cl)cc2Cl)c(O)c1 [Example 113] | > 100 | 242 to 247 | > 100 |
| COc1ccc(CS(=O)(=O)/C(C#N)=C/c2c(F)c(F)c(F)c(F)c2F)cc1[N+](=O)[O-] [Example 35] | 1 | 144 to 146 | 25 |
